Patent US20230391741A1, “AGAROFURAN COMPOUND, PREPARATION METHOD THEREFOR, AND APPLICATION THEREOF” (BEIJING CHY PHARMACEUTICAL TECHNOLOGY CO, LTD., priority 2021, published 2023)
“And” between values parts separate entries of the source, which are not always exact repeats. Identical values can stand only once.

Test system: male ICR mice
Assay: Elevated plus maze (EPM) test, intraperitoneal injection
Format: in vivo, mouse
Settings: for Closed arm number of entries / Closed arm residence time / Open arm number of entries / Open arm residence time / Open arm/closed arm frequency ratio / Open arm/closed arm time ratio: mice, intraperitoneal, 5 min before entering the maze
Source text: The active ingredient used in the following pharmacological experiment, the compound shown in Formula (I) of the present application, is the final product in Example 1 of the present application, namely (1R,6S,9R)6,10,10-trimethyl-2-(4,4,4-trifluorobutyl)-11-oxatricyclo [7.2.1.0^1,6]dodec-2-ene (hereinafter referred to as Compound 2). Compound 2 and an excipient PVP (povidone K30) were mixed in an ethanol solution in a mass ratio of 1:15, spin-dried, and prepared into a preparation form of Compound 2 (the following Compound 2 refers to the preparation form of Compound 2). The preparation form of which the active ingredient was 4-butyl-α-agarofuran (BAF for short) was used as a positive drug, a preparation method for this preparation was the same as that of the preparation of Compound 2, and the following BAF refers to this preparation of BAF. PVP was a blank control. In addition, the administration dose was calculated according to a crude drug.
This model is one of the most commonly used animal models in the research of antianxiety drugs. The elevated plus maze is composed of an open arm (30×5×0.5 cm) and an closed arm (30×8×15 cm) that are crossed in a positive cross shape, and the instrument is suspended 50 cm above the ground. Due to the narrowness, suspension, and brightness of the open arm, there may be internal “fear” or conflict in the open arm, and on the contrary, it more complies with the nature of rodents in the closed arm. 5 min after administration, a mouse is placed in the center of the maze, and its head faces to the open arm. Open-arm and closed-arm entries and residence times in both arms during the experimental period (usually 5 min) are recorded respectively. The percentages of the open arm entries and the open arm residence times respectively accounting for the total entries (sum of the open arm and closed arm entries) and the total time (sum of the open arm and closed arm residence times) are calculated, as an indicator for evaluating the anxiety. Generally speaking, a drug is considered to have antianxiety effects in the case that the open arm cumulative residence time is prolonged without reducing the open arm and closed arm entries.
The experiment used male Institute of Cancer Research (ICR) mice (purchased from Beijing Weitong Lihua Experimental Animal Technology Co., Ltd.), the weight was 18-20 g, the mice were randomly divided into 7 groups according to the weight, and there were 13 mice in each group. Grip adaptation training was conducted on the mice before the experiment. Before the experiment, the mice were fasted for 12 hours. It was administered by an intraperitoneal injection mode. 4-butyl-α-agarofuran (BAF for short) was used as a positive drug, and PVP was a blank control. The specific grouping and disposal modes are as follows:
During detection, after intraperitoneal injection of BAF/Compound 2, each mouse was immediately placed in an open animal box and allowed to move freely for 5 min, then the mouse was placed on a central platform of the elevated plus maze, its head faced to a fixed open arm. The detection was started, timed for 5 min, and recorded with a supermaze software by using a camera head. After all the experiments were completed, the residence times (s) of the mice in the open arm and the closed arm, the open arm and closed arm entries, and the time ratios and frequency ratios of the open arm and closed arm entries were recorded with the supermaze software. 1 was added to the number of entry arms with a latency of 0.

For CCCCC1=CCC[C@@]2(C)CC[C@@H]3C[C@]12OC3(C)C [BAF, 4-butyl-α-agarofuran, reference compound], the “Closed arm number of entries” value (2 mg/kg, 2 mg/kg) was 10.31 ± 1.13 and 11.22 ± 1.5 and 9.90 ± 1.19, the “Closed arm residence time” value (2 mg/kg, 2 mg/kg) was 143.9 ± 9.32 s and 148.89 ± 8.27 s and 146.67 ± 7.95 s and the “Open arm number of entries” value (2 mg/kg, 2 mg/kg) was 8.62 ± 0.92 and 8.78 ± 1.1 and 8.80 ± 1.14. For the same molecule, the “Open arm residence time” value (2 mg/kg, 2 mg/kg) was 115.97 ± 9.71 s and 110.32 ± 8.91 s and 110.04 ± 6.30 s, the “Open arm/closed arm frequency ratio” value (2 mg/kg, 2 mg/kg) was 0.85 ± 0.06 and 0.80 ± 0.07 and 0.89 ± 0.07 and the “Open arm/closed arm time ratio” value (2 mg/kg, 2 mg/kg) was 0.93 ± 0.16 and 0.79 ± 0.12 and 0.80 ± 0.11. For the same molecule, the “Closed arm number of entries” value (4 mg/kg, 4 mg/kg) was 9.23 ± 0.57 and 8.89 ± 0.79 and 9.29 ± 0.68, the “Closed arm residence time” value (4 mg/kg, 4 mg/kg) was 153.35 ± 7.35 s and 162.64 ± 5.96 s and 144.17 ± 12.09 s and the “Open arm number of entries” value (4 mg/kg, 4 mg/kg) was 7.38 ± 0.58 and 6.56 ± 0.4 and 8.29 ± 0.87. For the same molecule, the “Open arm residence time” value (4 mg/kg, 4 mg/kg) was 117.29 ± 7.44 s and 106.13 ± 3.91 s and 128.84 ± 11.89 s, the “Open arm/closed arm frequency ratio” value (4 mg/kg, 4 mg/kg) was 0.82 ± 0.07 and 0.77 ± 0.06 and 0.91 ± 0.09 and the “Open arm/closed arm time ratio” value (4 mg/kg, 4 mg/kg) was 0.82 ± 0.11 and 0.66 ± 0.04 and 0.98 ± 0.18. For the same molecule, the “Closed arm number of entries” value (8 mg/kg, 8 mg/kg) was 9.85 ± 0.72 and 9.78 ± 1.00 and 9.60 ± 0.87, the “Closed arm residence time” value (8 mg/kg, 8 mg/kg) was 162.19 ± 10.92 s and 158.24 ± 14.9 s and 165.34 ± 13.19 s and the “Open arm number of entries” value (8 mg/kg, 8 mg/kg) was 7.69 ± 0.91 and 8.11 ± 1.27 and 7.10 ± 0.95. For the same molecule, the “Open arm residence time” value (8 mg/kg, 8 mg/kg) was 110.07 ± 9.77 s and 113.25 ± 12.84 s and 107.74 ± 11.86 s, the “Open arm/closed arm frequency ratio” value (8 mg/kg, 8 mg/kg) was 0.76 ± 0.05 and 0.76 ± 0.07 and 0.72 ± 0.06 and the “Open arm/closed arm time ratio” value (8 mg/kg, 8 mg/kg) was 0.76 ± 0.10 and 0.81 ± 0.13 and 0.74 ± 0.12.
CC1(C)O[C@]23C[C@H]1CC[C@]2(C)CCC=C3CCCC(F)(F)F [Compound 2, (1R,6S,9R)6,10,10-trimethyl-2-(4,4,4-trifluorobutyl)-11-oxatricyclo [7.2.1.0^1,6]dodec-2-ene] was tested, and the “Efficacy compared with BAF” value (at both low and medium doses, especially low dose) was “better efficacy than BAF”, the “Efficacy compared with BAF” value (at low doses) was “better efficacy” and the “Antianxiety effects in elevated plus maze” value (intraperitoneal doses of 2.4, 4.8 and 9.6 mg/kg) was “significant antianxiety effects”. The “Closed arm number of entries” value (2.4 mg/kg) was 10.92 ± 0.84, the “Closed arm residence time” value (2.4 mg/kg) was 112.68 ± 8.68 s and the “Open arm number of entries” value (2.4 mg/kg) was 9.23 ± 0.47. For the same molecule, the “Open arm residence time” value (2.4 mg/kg) was 144.06 ± 8.10 s, the “Open arm/closed arm frequency ratio” value (2.4 mg/kg) was 0.89 ± 0.06 and the “Open arm/closed arm time ratio” value (2.4 mg/kg) was 1.48 ± 0.24. For the same molecule, the “Closed arm number of entries” value (4.8 mg/kg) was 10.00 ± 0.57, the “Closed arm residence time” value (4.8 mg/kg) was 149.91 ± 8.22 s and the “Open arm number of entries” value (4.8 mg/kg) was 9.08 ± 0.69. The “Open arm residence time” value (4.8 mg/kg) was 118.65 ± 6.32 s, the “Open arm/closed arm frequency ratio” value (4.8 mg/kg) was 0.93 ± 0.07 and the “Open arm/closed arm time ratio” value (4.8 mg/kg) was 0.86 ± 0.11. The “Closed arm number of entries” value (9.6 mg/kg) was 9.85 ± 1.08, the “Closed arm residence time” value (9.6 mg/kg) was 139.13 ± 11.37 s and the “Open arm number of entries” value (9.6 mg/kg) was 9.31 ± 1.12. The “Open arm residence time” value (9.6 mg/kg) was 115.0 ± 8.07 s, the “Open arm/closed arm frequency ratio” value (9.6 mg/kg) was 0.99 ± 0.10 and the “Open arm/closed arm time ratio” value (9.6 mg/kg) was 0.93 ± 0.12.
